The supplement of paper PMC10307832

What was measured:
Assay in all cases: relative viability (nuclei count vs DMSO), 5 days (fraction); higher = more cells survive
201T = tested on: 201T
Method in brief: (§1)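 For relative viability, nuclei counts in treated wells were divided by those in vehicle wells. Lung cancer cell lines had been pin-tool dosed in 1536-well plates the day after seeding and cultured for 5 days, then fixed and stained in one step (final 0.05% Triton X-100, 1% formaldehyde, 1 ug/ml Hoechst) and imaged at 4×. Doses were one drug alone or a fixed anchor-drug dose plus five library-drug doses (not always all listed) in √10 steps, and values are duplicate-plate medians.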

COR-L 105 = tested on: COR-L 105
Method in brief: as §1

COR-L23 = tested on: COR-L23
Method in brief: as §1

EKVX = tested on: EKVX
Method in brief: as §1

EPLC-272H = tested on: EPLC-272H
Method in brief: as §1

H3255 = tested on: H3255
Method in brief: as §1

HCC-15 = tested on: HCC-15
Method in brief: as §1

HCC-827 = tested on: HCC-827
Method in brief: as §1

LCLC-97TM1 = tested on: LCLC-97TM1
Method in brief: as §1

NCI-H1395 = tested on: NCI-H1395
Method in brief: as §1

NCI-H1650 = tested on: NCI-H1650
Method in brief: as §1

NCI-H1651 = tested on: NCI-H1651
Method in brief: as §1

NCI-H1792 = tested on: NCI-H1792
Method in brief: as §1

NCI-H1915 = tested on: NCI-H1915
Method in brief: as §1

NCI-H2023 = tested on: NCI-H2023
Method in brief: as §1

NCI-H322M = tested on: NCI-H322M
Method in brief: as §1

NCI-H460 = tested on: NCI-H460
Method in brief: as §1

NCI-H520 = tested on: NCI-H520
Method in brief: as §1

NCI-H596 = tested on: NCI-H596
Method in brief: as §1

NCI-H647 = tested on: NCI-H647
Method in brief: as §1

SK-MES-1 = tested on: SK-MES-1
Method in brief: as §1

Oc1nc(-c2ccc(C(F)(F)F)cc2)nc2c1CSCC2 [XAV939] + CC1(C)CCC(c2ccc(Cl)cc2)=C(CN2CCN(c3ccc(C(=O)NS(=O)(=O)c4ccc(N[C@H](CCN5CCOCC5)CSc5ccccc5)c(S(=O)(=O)C(F)(F)F)c4)cc3)CC2)C1 [Navitoclax] (partner 0.5 µM)
relative viability (201T; first compound 0.08 µM): 1.21
relative viability (201T; first compound 0.253 µM): 1.13
relative viability (201T; first compound 0.8 µM): 1.09
relative viability (201T; first compound 2.53 µM): 1.16
relative viability (COR-L 105; first compound 0.08 µM): 0.754
relative viability (COR-L 105; first compound 0.253 µM): 0.62
relative viability (COR-L 105; first compound 0.8 µM): 0.637
relative viability (COR-L 105; first compound 2.53 µM): 0.458
relative viability (COR-L23; first compound 0.08 µM): 1
relative viability (COR-L23; first compound 0.253 µM): 0.855
relative viability (COR-L23; first compound 0.8 µM): 0.948
relative viability (COR-L23; first compound 2.53 µM): 0.892
relative viability (EKVX; first compound 0.08 µM): 1.02
relative viability (EKVX; first compound 0.253 µM): 0.814
relative viability (EKVX; first compound 0.8 µM): 0.57
relative viability (EKVX; first compound 2.53 µM): 0.557
relative viability (EPLC-272H; first compound 0.08 µM): 1.18
relative viability (EPLC-272H; first compound 0.253 µM): 1.08
relative viability (EPLC-272H; first compound 0.8 µM): 1.19
relative viability (EPLC-272H; first compound 2.53 µM): 1.11
relative viability (H3255; first compound 0.08 µM): 0.511
relative viability (H3255; first compound 0.253 µM): 0.445
relative viability (H3255; first compound 0.8 µM): 0.403
relative viability (H3255; first compound 2.53 µM): 0.366
relative viability (HCC-15; first compound 0.08 µM): 0.719
relative viability (HCC-15; first compound 0.253 µM): 0.612
relative viability (HCC-15; first compound 0.8 µM): 0.678
relative viability (HCC-15; first compound 2.53 µM): 0.684
relative viability (HCC-827; first compound 0.08 µM): 1.02
relative viability (HCC-827; first compound 0.253 µM): 1.02
relative viability (HCC-827; first compound 0.8 µM): 0.975
relative viability (HCC-827; first compound 2.53 µM): 1.04
relative viability (LCLC-97TM1; first compound 0.08 µM): 0.534
relative viability (LCLC-97TM1; first compound 0.253 µM): 0.399
relative viability (LCLC-97TM1; first compound 0.8 µM): 0.621
relative viability (LCLC-97TM1; first compound 2.53 µM): 0.294
relative viability (NCI-H1395; first compound 0.08 µM): 1.11
relative viability (NCI-H1395; first compound 0.253 µM): 1.33
relative viability (NCI-H1395; first compound 0.8 µM): 1.2
relative viability (NCI-H1395; first compound 2.53 µM): 1.16
relative viability (NCI-H1650; first compound 0.08 µM): 1.18
relative viability (NCI-H1650; first compound 0.253 µM): 1.25
relative viability (NCI-H1650; first compound 0.8 µM): 1.05
relative viability (NCI-H1650; first compound 2.53 µM): 0.653
relative viability (NCI-H1651; first compound 0.08 µM): 1.12
relative viability (NCI-H1651; first compound 0.253 µM): 1.01
relative viability (NCI-H1651; first compound 0.8 µM): 0.995
relative viability (NCI-H1651; first compound 2.53 µM): 0.894
relative viability (NCI-H1792; first compound 0.08 µM): 0.595
relative viability (NCI-H1792; first compound 0.253 µM): 0.589
relative viability (NCI-H1792; first compound 0.8 µM): 0.601
relative viability (NCI-H1792; first compound 2.53 µM): 0.572
relative viability (NCI-H1915; first compound 0.08 µM): 0.813
relative viability (NCI-H1915; first compound 0.253 µM): 0.793
relative viability (NCI-H1915; first compound 0.8 µM): 0.769
relative viability (NCI-H1915; first compound 2.53 µM): 0.792
relative viability (NCI-H2023; first compound 0.08 µM): 0.968
relative viability (NCI-H2023; first compound 0.253 µM): 0.843
relative viability (NCI-H2023; first compound 0.8 µM): 0.862
relative viability (NCI-H2023; first compound 2.53 µM): 0.827
relative viability (NCI-H322M; first compound 0.08 µM): 1.26
relative viability (NCI-H322M; first compound 0.253 µM): 0.748
relative viability (NCI-H322M; first compound 0.8 µM): 1.21
relative viability (NCI-H322M; first compound 2.53 µM): 1.03
relative viability (NCI-H460; first compound 0.08 µM): 1.38
relative viability (NCI-H460; first compound 0.253 µM): 1.03
relative viability (NCI-H460; first compound 0.8 µM): 1.1
relative viability (NCI-H460; first compound 2.53 µM): 1.16
relative viability (NCI-H520; first compound 0.08 µM): 1.21
relative viability (NCI-H520; first compound 0.253 µM): 0.988
relative viability (NCI-H520; first compound 0.8 µM): 0.861
relative viability (NCI-H520; first compound 2.53 µM): 0.885
relative viability (NCI-H596; first compound 0.08 µM): 0.887
relative viability (NCI-H596; first compound 0.253 µM): 1.09
relative viability (NCI-H596; first compound 0.8 µM): 0.901
relative viability (NCI-H596; first compound 2.53 µM): 0.756
relative viability (NCI-H647; first compound 0.08 µM): 1.18
relative viability (NCI-H647; first compound 0.253 µM): 0.94
relative viability (NCI-H647; first compound 0.8 µM): 0.881
relative viability (NCI-H647; first compound 2.53 µM): 0.877
relative viability (SK-MES-1; first compound 0.08 µM): 1.21
relative viability (SK-MES-1; first compound 0.253 µM): 1.12
relative viability (SK-MES-1; first compound 0.8 µM): 1.12
relative viability (SK-MES-1; first compound 2.53 µM): 1.14
